Test results reported in patent US10093675B2, “6,8-disubstituted-9-(heterocyclyl)purines, compositions containing these derivatives and their use in cosmetic and medicinal applications” (USTAV EXPERIMENTALNI BOTANIKY AV CR, V.V.I., priority 2014, dated 2018).
pIC50: −log10 of the molar value. Like-named read-outs stand apart in the source and are kept apart here.

What was measured:
[1] = system: cytokinin-dependent tobacco callus Nicotiana tabacum L. cv. Wisconsin 38; test: Plant cell division: growth of cytokinin-dependent tobacco callus; type: cell-based; details: for Activity (%); (s.d.): relative activity at concentration with highest activity, 10^−6 M kinetin set at 100%; for Concentration with highest activity (mol/l): tobacco callus fresh weight increase after four weeks, tested 10^−8 M to 10^−4 M
[2] = system: normal diploid fibroblasts BJ; test: In vitro cytotoxic activity (Calcein AM), BJ; type: cell-based, human; details: 72 hours, read-out: Cell line tested/IC50 (μmol/L) BJ
Method in brief: (§1)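 Calcein fluorescence, read 1 hour after adding Calcein AM at 1 μg/ml final, measured viability following 72 hours of compound treatment at 37° C. Compounds were tested as six 3-fold dilutions from usually 100 μM in triplicate. GI50 was the concentration reducing conversion by 50%.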

[3] = system: T-lymphoblastic leukemia cell line CEM; test: In vitro cytotoxic activity (Calcein AM), CEM; type: cell-based, human; details: 72 hours, read-out: Cell line tested/IC50 (μmol/L) CEM
Method in brief: as §1

[4] = system: erytroid leukemia cell line K-562; test: In vitro cytotoxic activity (Calcein AM), K-562; type: cell-based, human; details: read-out: Cell line tested/IC50 (μmol/L) K-562
Method in brief: as §1

[5] = system: breast carcinoma cell line MCF-7; test: In vitro cytotoxic activity (Calcein AM), MCF-7; type: cell-based, human; details: read-out: Cell line tested/IC50 (μmol/L) MCF7
Method in brief: as §1

[6] = system: osteosarcoma cell line HOS; test: In vitro cytotoxic activity (Calcein AM), HOS; type: cell-based, human; details: 72 hours, read-out: Cell line tested/IC50 (μmol/L) HOS
Method in brief: as §1

melanoma cell line G-361 = test: In vitro cytotoxic activity (Calcein AM), G-361; type: cell-based, human; details: read-out: Cell line tested/IC50 (μmol/L) G-361
Method in brief: as §1

[7] = system: Human diploid fibroblast BJ; test: In vitro cytotoxic activity (MTT); type: cell-based; details: 72 hours incubation; concentration causing 20% decrease in mitochondrial dehydrogenase activity
[8] = system: Salmonella typhimurium histidien auxotrophs TA98 and TA100; test: Ames test; type: cell-based; details: 2.5 to 5000 μg/plate; presence and absence of Aroclor-induced rat liver S9
Method in brief: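 Strains TA98 and TA100 exposed to compounds in DMSO at 2.5, 5.0, 15, 50, 500, 1500 and 5000 μg/plate following standard Ames/Maron protocols.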

Row | SMILES | Activity (%); (s.d.) [1] | pIC50 ([2]; Homo sapiens, Fibroblast) | pIC50 ([3]; Homo sapiens) | pIC50 ([4]; Homo sapiens, K562, 72 hours) | pIC50 ([5]; Homo sapiens, MCF7, 72 hours) | pIC50 ([6]; Homo sapiens) | pIC50 (melanoma cell line G-361; Homo sapiens, G-361, 72 hours) | GI20 [7] | mutagenic response [8] | Concentration with highest activity (mol/l) [1] | pIC50 [2] | pIC50 [3] | pIC50 ([4]; 72 hours) | pIC50 ([5]; 72 hours) | pIC50 [6] | pIC50 (melanoma cell line G-361; 72 hours)
1 | C/C(=C\CNc1ncnc2c1nc(Br)n2C1CCCCO1)CO (stereo not shown) [Compound 24, (E)-8-Bromo-6-(4-hydroxy-3-methylbut-2-en-1-ylamino)-9-(tetrahydropyran-2-yl)-9H-purine] | 128 (±8) % | < 4.30 | < 4.30 | < 4.30 | < 4.30 | < 4.30 | < 4.30 | >100 µM | no positive mutagenic responses |  |  |  |  |  |  | 
2 | Fc1cccc(CNc2ncnc3c2nc(Br)n3C2CCCCO2)c1 (stereo not shown) [Compound 26] | 117 (±4) % |  |  |  |  |  |  | >100 µM | no positive mutagenic responses | 10^−6-10^−5 mol/l | < 4.30 | < 4.30 | < 4.30 | < 4.30 | < 4.30 | < 4.30
3 | Fc1ccc(CNc2ncnc3c2nc(Br)n3C2CCCCO2)cc1F (stereo not shown) [Compound 27] | 115 (±4) % |  |  |  |  |  |  | >100 µM | no positive mutagenic responses | 10^−6-10^−5 mol/l | < 4.30 | < 4.30 | < 4.30 | < 4.30 | < 4.30 | < 4.30
4 | C/C(=C\CNc1ncnc2c1nc(Cl)n2C1CCCO1)CO (stereo not shown) [Compound 64] | 130 (±10) % |  |  |  |  |  |  | >100 µM | no positive mutagenic responses | 10^−6-10^−4 mol/l | < 4.30 | < 4.30 | < 4.30 | < 4.30 | < 4.30 | < 4.30
5 | COc1cccc(CNc2ncnc3c2nc(Cl)n3C2CCCO2)c1 (stereo not shown) [Compound 69] | 111 (±5) % |  |  |  |  |  |  | >100 µM | no positive mutagenic responses | 10^−6-10^−4 mol/l | < 4.30 | < 4.30 | < 4.30 | < 4.30 | < 4.30 | < 4.30
6 | COc1nc2c(NCc3ccco3)ncnc2n1C1CCCCO1 (stereo not shown) [Compound 124, 6-Furfurylamino-8-methoxy-9-(tetrahydropyran-2-yl)-9H-purine] | 105 (±2) % | < 4.30 | < 4.30 | < 4.30 | < 4.30 | < 4.30 | < 4.30 | >100 µM | no positive mutagenic responses |  |  |  |  |  |  | 
7 | CSc1nc2c(NCc3ccco3)ncnc2n1C1CCCCO1 (stereo not shown) [Compound 145, 6-Furfurylamino-8-methylsulfanyl-9-(tetrahydropyran-2-yl)-9H-purine] | 103 (±5) % | < 4.30 | < 4.30 | < 4.30 | < 4.30 | < 4.30 | < 4.30 | >100 µM | no positive mutagenic responses |  |  |  |  |  |  | 
